Values of other authors as cited in patent publication US20230071557A1, “STABLE PHARMACEUTICAL COMPOSITIONS OF ROPINIROLE” (ORION CORPORATION, priority 2020, published 2023).
Where a name gives a salt, the structure may show the parent alone.

System: dogs
Settings: aqueous eye drop solution comprising 10 or 40 mg/ml of ropinirole hydrochloride

**Q.** For CCCN(CCC)CCc1cccc2c1CC(=O)N2 [ropinirole hydrochloride], which “Vomiting (emesis) in dogs” value is on record?
**A.** produced vomiting rapidly and consistently
